According to US20260159481A1, “INDOLE DERIVATIVE WITH SUBSTITUENT AND PHARMACEUTICAL USE” (MITOIMMUNE THERAPEUTICS INC., priority 2023, published 2026):

What was measured:
Assay type in all cases: cell-based
cardiac cells (H9C2) [1] = test: Protective effect against t-BHP-induced cell death in cardiac cells (LDH release); details: Rattus norvegicus, t-BHP 400 PM, 2 hours, read-out: EC50, protective effect against cell death due to t-BHP induction
Outline: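 H9C2 cells were pretreated 15–20 min with compound at final 0.001–30 PM (so in the source), then exposed to t-BHP at final 400 PM for 2 h. LDH released into supernatant was measured colorimetrically at 490 nm after 15 min room-temperature reaction, and EC50 derived.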

cardiac cells (H9C2) [2] = test: Protective effect against cell death due to RSL3 (LDH release), H9C2; details: RSL3 0.5 μM, 24 hours
Method: (§1) To confirm cell death protection effects on cardiac cells, adrenal medullary cells, renal fibroblasts, retinal epithelial cells, lung epithelial cells, renal proximal tubular epithelial cells, hippocampal neurons and fibroblasts, each type of cells were seeded at 4×10^3 to 1.2×10^4 cells/well in a 96-well plate and cultured for 18 to 24 hours. The example compounds were diluted to have the final concentration of 0.001, 0.003, 0.01, 0.3, 1, 3, and 10 μM, respectively, and then added to different wells and cultured for 15 to 20 minutes. […] To confirm the cell death protection effect of the example compounds, the degree of extracellular secretion of lactate dehydrogenase (LDH) was measured using a cytotoxicity LDH assay kit [Dojindo; CK12]. Briefly, at the end of 24-hour treatment of each type of cells with RSL3, 70 μL of the supernatant was taken from the 96-well plate where the cells were cultured and transferred to a new 96-well plate. The assay buffer included in the kit was added at 70 μL/well (equal to that of the sample) and the plate was covered with foil to block light and allowed to react for 15 to 20 minutes at room temperature. While observing a color change of the sample, 35 µL/well of a stop solution was added, an absorbance at 490 nm was measured using an iD3 spectrophotometer, and an EC50 value was calculated.

[3] = tested on: adrenal medullary cells (PC-12); test: Protective effect against cell death due to RSL3 (LDH release), PC-12; details: RSL3 0.3 μM, 24 hours
Method: as §1

MLE-12 cells [4] = test: Inhibitory effect on cytosolic ROS (CM-H2DCFDA) under RSL3; details: 1 μM RSL3, 2 hours, compound 0.01, 0.1, 1 μM, FIG. 3
Method: To confirm the protective effect against cyto-ROS in lung epithelial cells, MLE-12 cells were seeded at 2×10^5 cells/well in a 12-well plate, and cultured for 18 to 24 hours. Example Compound 29 and Fer-1 were diluted to have the final concentration of 0.01, 0.1, and 1 μM and added to each well, and the cells were cultured for 10 minutes. Afterward, RSL3 was treated to have the final concentration of 1 M, and the cells were cultured for 2 hours. To confirm the inhibitory effect on cyto-ROS, the general oxidative stress indicator CM-H2DCFDA (Invitrogen™; C6827) was used. According to the manufacturer's protocol, CM-H2DCFDA was diluted in the culture broth to have the final concentration of 5 μM, and fluorescence staining was performed after a 30-minute reaction. The MLE-12 cells that were fluorescence-stained with CM-H2DCFDA were detached from the 12-well plate using 0.25% trypsin-EDTA and transferred to a microtube. Fluorescence (Ex/Em=492˜495 nm/517-527 nm) was measured using BD FACSLyric™, and the relative change compared to the control (RSL3-untreated group) was calculated.

MLE-12 cells [5] = test: Inhibitory effect on mito-ROS (MitoSOX) under RSL3; details: 1 μM RSL3, 2 hours, FIG. 4
Method: To confirm the protective effect against mito-ROS in lung epithelial cells, MILE-12 cells were seeded at 2×10^5 cells/well in a 12-well plate and cultured for 18 to 24 hours. Example Compound 29 and Fer-1 were diluted to have the final concentration of 0.01, 0.1, 1 and 10 M and added to each well, and the cells were cultured for 10 minutes. Afterward, RSL3 was treated to have the final concentration of 1 M, and the cells were cultured for 2 hours. To confirm the inhibitory effect on mito-ROS, the mitochondrial superoxide indicator MitoSOX™ (Invitrogen™; C6827) was used. According to the manufacturer's protocol, MitoSOX was diluted in the culture broth to have the final concentration of […], and fluorescence staining was performed after a 30-minute reaction. The MLE-12 cells fluorescence-strained with MitoSOX were detached from the 12-well plate using 0.25% trypsin-EDTA and transferred to a microtube, and fluorescence (Ex/Em=˜396 nm/610 nm) was measured using BD FACSLyric™, and the relative change compared to the control (RSL3-untreated group) was calculated.

MLE-12 cells [6] = test: Inhibitory effect on mitochondrial accumulation of ferrous ions (Mito-FerroGreen) under RSL3; details: 1 μM RSL3, 8 hours, compound 0.01, 0.1, 1 μM, FIG. 6
Method: To confirm the inhibitory effect on the mitochondrial accumulation of ferrous ions in lung epithelial cells, MILE-12 cells were seeded at 2×10^5 cells/well in a 12-well plate and cultured for 18 to 24 hours. Example Compound 29 and Fer-1 were diluted to have the final concentration of 0.01, 0.1, and 1 μM and added to each well, and the cells were cultured for 10 minutes. Afterward, RSL3 was treated to have the final concentration of 1 μM, and the cells were cultured for 8 hours. To confirm the inhibitory effect on the mitochondrial accumulation of ferrous ions, Mito-FerroGreen (DOJINDO; M489) was used. According to the manufacturer's protocol, the Mito-FerroGreen was diluted in the culture broth to have the final concentration of 1 μM, and fluorescence staining was performed after a 30-minute reaction. The MLE-12 cells that were fluorescence-stained with Mito-FerroGreen were detached from the 12-well plate using 0.25% trypsin-EDTA and transferred to a microtube. Fluorescence (Ex/Em=505 nm/535 nm) was measured using, BD FACSLyric™, and the relative change compared to the control was calculated.

Row | SMILES | EC50 (cardiac cells (H9C2) [1]) [nM] | EC50 (cardiac cells (H9C2) [2]; Rattus norvegicus) [nM] | EC50 ([3]; Rattus norvegicus) [nM] | cyto-ROS increased by RSL3 treatment (MLE-12 cells [4]) | mito-ROS increased by RSL3 treatment (MLE-12 cells [5]) | mitochondrial ferrous ions increased by RSL3 treatment (MLE-12 cells [6]) | EC50 (cardiac cells (H9C2) [2]) [nM] | EC50 [3] [nM]
1 | OCCOCCOCc1cc(NC2CCOCC2)c2[nH]c(-c3ccccc3)cc2c1 [Example 29, 2-(2-((2-phenyl-7-((tetrahydro-2H-pyran-4-yl)amino)-1H-indol-5-yl)methoxy)ethoxy)ethan-1-ol] | ≤ 300 | ≤ 100 | 100 to 1000 | significantly reduced lipid ROS levels at 0.1 and 1 μM | significantly decreased at 0.01, 0.1, and 1 μM | significantly reduced mitochondrial ferrous ion levels at 0.01, 0.1, and 1 M |  | 
2 | CCOC(=O)c1ccc(NC2CCCCC2)c(N)c1 [Fer-1, ferrostatin-1, reference compound] |  |  |  | significantly reduced lipid ROS levels at 0.01, 0.1 and 1 μM | significantly decreased at 0.01, 0.1, and 1 μM | significantly reduced mitochondrial ferrous ion levels at 0.1 and 1 μM | ≤ 100 | ≤ 100
